Data on eleven compounds can be found in ChEMBL document CHEMBL4312024, “Optimization of piperazine-derived ureas privileged structures for effective antiadenovirus agents” (Eur J Med Chem, 2020).

Activity calls are given as the source filed them. The rule behind the calls is not given here.

In series [1] the test system is Human adenovirus 5. Kind of series: Antiviral activity against Human adenovirus 5 infected in A549 cells assessed as fold reduction in virus yield at 50 uM incubated for 48 hrs by endpoint dilution method relative to control. It counts as functional.
Series [2] can be described thus: Stability in Syrian hamster serum assessed as parent compound remaining at 1 uM measured immediately by LC-MS/MS analysis. In kind it is ADME, cell-free, Mesocricetus auratus. To be noted: read-out: Stability.
Series [3] deals with Human adenovirus 5. Kind of series: Antiviral activity against Human adenovirus 5 infected in HEK293beta5 cells coexpressing GFP assessed as inhibition of plaque formation at 10 uM incubated for 7 days relative to control. In kind it is functional. To be noted: Human mastadenovirus C, 168 h.
The nature of series [4]: Stability in Syrian hamster serum assessed as parent compound remaining at 1 uM measured after 15 mins by LC-MS/MS analysis. It counts as ADME, cell-free, Mesocricetus auratus. To be noted: for remaining at 0.25 h, 1 µM: read-out: Stability.
Series [5] has as its system Human adenovirus 5. Kind of series: Antiviral activity against Human adenovirus 5 infected in HEK293beta5 cells coexpressing GFP assessed as inhibition of plaque formation incubated for 7 days. It counts as functional, organism-based. To be noted: Human mastadenovirus C, 168 h.
Series [6] is described as follows: Stability in Syrian hamster serum assessed as parent compound remaining at 1 uM measured after 120 mins by LC-MS/MS analysis. It counts as ADME, cell-free, Mesocricetus auratus. To be noted: read-out: Stability.
Series [7] concerns Human adenovirus 5. Kind of series: Antiviral activity against Human adenovirus 5 infected in A549 cells assessed as nuclear associated viral DNA copies at 50 uM incubated for 45 mins by qRT-PCR analysis. In kind it is functional, organism-based. A general note: In qPCR the cycle at which signal appears reflects the starting amount.
A short description of series [8]: Selectivity Index, ratio of CC50 for human A549 cells to IC50 for Human adenovirus 5 infected in HEK293beta5 cells coexpressing GFP. It counts as toxicity, cell-based. To be noted: read-out: Ratio CC50/IC50.
Series [9] can be described thus: Stability in Syrian hamster serum assessed as parent compound remaining at 1 uM measured after 60 mins by LC-MS/MS analysis. To be noted: read-out: Stability. It counts as ADME, cell-free, Mesocricetus auratus.
Series [10] can be described thus: Stability in Syrian hamster serum assessed as parent compound remaining at 1 uM measured after 30 mins by LC-MS/MS analysis. It counts as ADME, cell-free, Mesocricetus auratus. To be noted: for remaining at 0.5 h, 1 µM: read-out: Stability.
A short description of series [11]: Cytotoxicity against human A549 cells assessed as reduction in cell viability incubated for 48 hrs by alamarBlue assay. In kind it is cell-based. On the technique in general: Resazurin is reduced to fluorescent resorufin, in cell work by metabolically active cells.
A further series has as its system Human betaherpesvirus 5. Kind of series: Antiviral activity against Human cytomegalovirus infected in MRC5 cells assessed as decrease in viral DNA copies at 50 uM incubated for 72 hrs by qRT-PCR analysis. In kind it is functional, organism-based.
Series [12] relates to Human adenovirus 5. The series can be described thus: Antiviral activity against Human adenovirus 5 infected in A549 cells assessed as decrease in […] cDNA copies at 50 uM incubated for 24 hrs by qRT-PCR analysis. In kind it is functional, organism-based.
Series [13] concerns Human adenovirus 5. Kind of series: Antiviral activity against Human adenovirus 5 infected in A549 cells assessed as decrease in […] cDNA copies incubated for 24 hrs by qRT-PCR analysis. It counts as functional, organism-based.

What is called inhibition is the share of the control response that was lost under treatment. As usually defined, the IC50 is the concentration needed to halve the response being measured. A word on the CC50: it is the concentration that lowers cell viability or growth by half. Consider `O=C(Cc1ccccc1)N1CCN(C(=S)Nc2cc(C(F)(F)F)cc(C(F)(F)F)c2)C(c2ccccc2)C1` (stereo not drawn), for which, in the series on Human adenovirus 5 [1], the “fold change (FC)” value is 1690. Moreover, the remaining at 0 min, 1 µM in [2] was 100%. The inhibition at 10 µM with Human adenovirus 5 [3] came out at 100%. Further, the remaining at 0.25 h, 1 µM in series [4] amounted to 97.2%. In the series on Human adenovirus 5 [5], the IC50 worked out at 0.7 µM. For the same compound, in [6], the remaining at 2 h, 1 µM worked out at 100%. For the same compound, the result in the series on Human adenovirus 5 [7] was Active. Besides, in [8], the selectivity ratio was determined as 149. In addition, the remaining at 1 h, 1 µM in series [9] was 90.5%. The remaining at 0.5 h, 1 µM in [10] came to 110%. Also, the CC50 at 48 h in [11] came to 104 µM.

For `CC1CN(C(=O)CC2CCCCC2)CCN1C(=S)Nc1ccc(F)cc1` (stereo not drawn), in the series on Human adenovirus 5 [1], the “fold change (FC)” value is given as 30.5. In addition, the remaining at 0 min, 1 µM in series [2] was 100%. Moreover, the inhibition at 10 µM with Human adenovirus 5 [3] was 100%. For the same compound, the remaining at 0.25 h, 1 µM in [4] was 117%. The IC50 in the series with Human adenovirus 5 [5] is 0.6 µM. Besides, the remaining at 2 h, 1 µM in [6] came to 67.3%. Moreover, in the series with Human adenovirus 5 [7], the outcome was Active. The selectivity ratio in [8] was 238. In addition, the remaining at 1 h, 1 µM in [9] amounted to 85%. Also, the remaining at 0.5 h, 1 µM in [10] was 96.4%. Moreover, in [11], the half-maximal cytotoxic concentration (CC50) at 48 h worked out at 143 µM.

Regarding `CC(C)(C)OC(=O)N1CCN(C(=O)Nc2ccc([N+](=O)[O-])cc2)CC1`, in the series on Human adenovirus 5 [1], the “fold change (FC)” value was found to be 21.2. Moreover, the inhibition at 10 µM with Human adenovirus 5 [3] was 91.5%. The IC50 with Human adenovirus 5 [5] worked out at 2.7 µM. The outcome with Human adenovirus 5 [7] and in the series on Human betaherpesvirus 5 was Active. Further, in series [8], the selectivity ratio worked out at 43.7. The result in the series on Human adenovirus 5 [12] was inactive. Moreover, the CC50 at 48 h in series [11] worked out at 118 µM.

Take `CC1CN(C(=O)Cc2ccccc2)CCN1C(=S)Nc1cc(C(F)(F)F)cc(C(F)(F)F)c1` (stereo not drawn): in the series with Human adenovirus 5 [1], the “fold change (FC)” value was 33.4. Also, in series [2], the remaining at 0 min, 1 µM was determined as 100%. Besides, in the series on Human adenovirus 5 [3], the inhibition at 10 µM amounted to 73.4%. Besides, the remaining at 0.25 h, 1 µM in series [4] is 109%. Moreover, the concentration for half-maximal inhibition (IC50) in the series on Human adenovirus 5 [5] was found to be 5.1 µM. For the same compound, the remaining at 2 h, 1 µM in series [6] worked out at 92.8%. In addition, the result in the series with Human adenovirus 5 [7], in the series on Human betaherpesvirus 5 and in the series on Human adenovirus 5 [12] was Active. The selectivity ratio in series [8] was 25.4. For the same compound, the remaining at 1 h, 1 µM in series [9] stood at 96.5%. Moreover, in series [10], the remaining at 0.5 h, 1 µM was 107%. For the same compound, in the series with Human adenovirus 5 [13], the Activity result is “Dose-dependent effect”.

`CC1CN(C(=O)Cc2ccccc2)CCN1C(=S)Nc1ccc([N+](=O)[O-])cc1` (stereo not drawn): the “fold change (FC)” value in the series on Human adenovirus 5 [1] worked out at 25.6. Moreover, the remaining at 0 min, 1 µM in [2] came to 100%. In the series on Human adenovirus 5 [3], the inhibition at 10 µM was 98.2%. In addition, the Stability in [4] (0.25 h, 1 µM) worked out at 142.7%; in series [10] (0.5 h, 1 µM), 139.4%. For the same compound, in the series on Human adenovirus 5 [5], the IC50 worked out at 2 µM. Also, the remaining at 2 h, 1 µM in series [6] is 107%. Besides, the outcome in the series on Human adenovirus 5 [7] and in the series with Human betaherpesvirus 5 was Active. In series [8], the selectivity ratio came to 105. For the same compound, the remaining at 1 h, 1 µM in [9] stood at 114%. The outcome in the series with Human adenovirus 5 [12] was inactive. In addition, the CC50 at 48 h in series [11] turned out to be 210 µM.

Turning to `CC(C)(C)OC(=O)N1CCN(C(=O)Nc2cc(C(F)(F)F)ccc2Cl)CC1`, in the series on Human adenovirus 5 [1], the “fold change (FC)” value is 18.7. In addition, the inhibition at 10 µM in the series on Human adenovirus 5 [3] is 95%. In addition, the IC50 with Human adenovirus 5 [5] was 2.3 µM. In addition, the result with Human adenovirus 5 [7] and with Human betaherpesvirus 5 was Active. Besides, in series [8], the selectivity ratio is 87. Also, in series [11], the CC50 at 48 h stood at 200 µM.

For `CC1CN(C(=O)Cc2ccccc2)CCN1C(=S)Nc1ccc(C#N)cc1` (stereo not drawn), the “fold change (FC)” value in the series with Human adenovirus 5 [1] stood at 18.4. For the same compound, the inhibition at 10 µM with Human adenovirus 5 [3] was 98.4%. Also, the IC50 in the series on Human adenovirus 5 [5] was determined as 4.6 µM. Moreover, the outcome in the series on Human adenovirus 5 [7] and in the series with Human betaherpesvirus 5 was Active. Further, in series [8], the selectivity ratio stood at 38. Besides, the result in the series with Human adenovirus 5 [12] was inactive. The CC50 at 48 h in series [11] is 175 µM.

For `CC1CN(C(=O)OC(C)(C)C)CCN1C(=S)Nc1ccc(F)cc1` (stereo not drawn), the “fold change (FC)” value with Human adenovirus 5 [1] is listed as 12.1. For the same compound, in series [2], the remaining at 0 min, 1 µM was found to be 100%. The inhibition at 10 µM with Human adenovirus 5 [3] stood at 92.9%. Moreover, the remaining at 0.25 h, 1 µM in series [4] stood at 97.8%. In the series on Human adenovirus 5 [5], the IC50 worked out at 1.8 µM. Further, the remaining at 2 h, 1 µM in series [6] was determined as 75.4%. Further, the result with Human adenovirus 5 [7] was Active. In addition, in series [8], the selectivity ratio was found to be 111. The remaining at 1 h, 1 µM in series [9] stood at 86.5%. In addition, in series [10], the remaining at 0.5 h, 1 µM came to 102%. In addition, the CC50 at 48 h in series [11] amounted to 200 µM.

For the compound `O=C(Cc1ccccc1)N1CCN(C(=O)Nc2ccccc2[N+](=O)[O-])C(c2ccccc2)C1` (stereo not drawn), in the series with Human adenovirus 5 [1], the “fold change (FC)” value was found to be 32.9. The inhibition at 10 µM with Human adenovirus 5 [3] is 96.9%. The IC50 in the series with Human adenovirus 5 [5] was 2.1 µM. Also, the result in the series with Human adenovirus 5 [7] and in the series on Human betaherpesvirus 5 was Active. Further, the selectivity ratio in series [8] came out at 57.4. Further, in series [11], the CC50 at 48 h turned out to be 120 µM.

In the case of `Cc1ccc(NC(=S)N2CCN(C(=O)CC3CCCCC3)CC2C)cc1` (stereo not drawn), in the series on Human adenovirus 5 [1], the “fold change (FC)” value is recorded as 39.1. The inhibition at 10 µM with Human adenovirus 5 [3] is 95.8%. Besides, in the series with Human adenovirus 5 [5], the IC50 was found to be 2.1 µM. Also, the outcome with Human adenovirus 5 [7] and in the series on Human betaherpesvirus 5 was Active. The selectivity ratio in series [8] worked out at 58.2. In the series with Human adenovirus 5 [12], the outcome was inactive. For the same compound, the CC50 at 48 h in [11] was found to be 122 µM.

As to `CC[C@H](C)[C@@H]1NC(=O)CNC(=O)[C@@H]2Cc3c([nH]c4cc(O)ccc34)[S@+]([O-])C[C@H](NC(=O)CNC1=O)C(=O)N[C@@H](CC(N)=O)C(=O)N1C[C@H](O)C[C@H]1C(=O)N[C@@H]([C@@H](C)[C@@H](O)CO)C(=O)N2`, in the series on Human adenovirus 5 [13], the Activity entry is “Dose-dependent effect”.
